What was measured:
Experiment in all cases: MIC by agar-dilution, in vitro antibacterial test
Format in all cases: cell-based
[1] = tested on: Proteus mirabilis; details: Code No. A18, Jewell and Pearmain agar medium, inoculum ~10^5 CFU
Source text: (§1) As noted above the cephalosporin derivative of the invention has antibacterial properties, having a broad spectrum of activity in vitro against standard laboratory microorganisms, both Gram-negative and Gram-positive, which are used to screen for activity against pathogenic bacteria. The antibacterial spectrum and potency of a particular compound may be determined in a standard test system.
(§2) The results set out in the following Table of the compound described in Example 1 are illustrative of the biological activity of the compounds of the present invention. The results are those obtained on a standard in vitro test system using Jewell and Pearmain agar medium. The antibacterial activity is described in terms of the minimum inhibitory concentration (MIC) determined by agar - dilution technique with an inoculum size of ~10^5 CFU.

[2] = tested on: Salmonella dublin; details: Code No. A20, Jewell and Pearmain agar medium, inoculum ~10^5 CFU
Source text: as §1, §2

[3] = tested on: Staph. aureus; details: Code No. A6, Jewell and Pearmain agar medium, inoculum ~10^5 CFU
Source text: as §1, §2

[4] = tested on: Serratia marescens; details: Code No. A16, Jewell and Pearmain agar medium, inoculum ~10^5 CFU
Source text: as §1, §2

[5] = tested on: K. aerogenes; details: Code No. A10, Jewell and Pearmain agar medium, inoculum ~10^5 CFU
Source text: as §1, §2

[6] = tested on: E. coli; details: Code No. A8, Jewell and Pearmain agar medium, inoculum ~10^5 CFU
Source text: as §1, §2

[7] = tested on: Ent. cloacae; details: Code No. A13, Jewell and Pearmain agar medium, inoculum ~10^5 CFU
Source text: as §1, §2

[8] = tested on: Strep. pyrogenes; details: Code No. A1, Jewell and Pearmain agar medium, inoculum ~10^5 CFU
Source text: as §1, §2

[9] = tested on: Ps. aeruginosa; details: Code No. A21, Jewell and Pearmain agar medium, inoculum ~10^5 CFU
Source text: as §1, §2

Structure (SMILES): CC(=O)OCC1=C(C(=O)O)N2C(=O)C(Nc3ncc[nH]3)C2[S+]([O-])C1.O=C(O)C(F)(F)F (stereo not drawn) [Example 1, 3-acetoxymethyl-7-(imidazol-2-yl)aminoceph-3-em-1β-oxide-4-carboxylicacid trifluoroacetate]
- minimum inhibitory concentration (MIC) [1]: > 128 µg/mL
- minimum inhibitory concentration (MIC) [2]: 1 µg/mL
- minimum inhibitory concentration (MIC) [3]: > 128 µg/mL
- minimum inhibitory concentration (MIC) [4]: 64 µg/mL
- minimum inhibitory concentration (MIC) [5]: 4 µg/mL
- minimum inhibitory concentration (MIC) [6]: 2 µg/mL
- minimum inhibitory concentration (MIC) [7]: 2 µg/mL
- minimum inhibitory concentration (MIC) [8]: 64 µg/mL
- minimum inhibitory concentration (MIC) [9]: > 128 µg/mL
